Measured values as given in ChEMBL document CHEMBL3785043, “Exploring the purine core of 3'-C-ethynyladenosine (EAdo) in search of novel nucleoside therapeutics” (Bioorg Med Chem Lett, 2016).
The source made the active and inactive calls. The rule behind the calls is not given here.

Legend:
Human alphaherpesvirus 1 [1] = experiment: Antiviral activity against HSV-1 KOS at 100 uM; assay type: functional, organism-based
CCRF-CEM = experiment: Cytostatic activity against human CEM cells after 72 hrs by Coulter counter method; assay type: functional, cell-based
L1210 = experiment: Cytostatic activity against mouse L1210 cells after 48 hrs by Coulter counter method; assay type: functional, cell-based; conditions: L1210, 48 h
Human alphaherpesvirus 2 [2] = experiment: Antiviral activity against HSV-2 lyons at 100 uM; assay type: functional, organism-based
[3] = test system: Vesicular stomatitis virus; experiment: Antiviral activity against VSV at 100 uM; assay type: functional, organism-based
Coxsackievirus B4 = experiment: Antiviral activity against Coxsackie B4 virus at 100 uM; assay type: functional, organism-based
Influenza A virus [4] = experiment: Antiviral activity against Influenza virus A H3N2 at 100 uM; assay type: functional, organism-based
Human adenovirus 2 = experiment: Antiviral activity against Adenovirus 2 at 100 uM; assay type: functional, organism-based
[5] = test system: Mammalian orthoreovirus 1; experiment: Antiviral activity against Reovirus 1 at 100 uM; assay type: functional
Human alphaherpesvirus 2 [6] = experiment: Antiviral activity against HSV-2 G at 100 uM; assay type: functional, organism-based; conditions: strain G
Human alphaherpesvirus 3 [7] = experiment: Antiviral activity against thymidine kinase deficient VZV 07-1; assay type: functional, organism-based; conditions: Human alphaherpesvirus 3, 07-1
Punta Toro virus = experiment: Antiviral activity against Punta Toro virus at 100 uM; assay type: functional, organism-based
Influenza A virus [8] = experiment: Antiviral activity against Influenza virus A H1N1 at 100 uM; assay type: functional, organism-based
Human alphaherpesvirus 3 [9] = experiment: Antiviral activity against VZV Oka; assay type: functional, organism-based; conditions: Human alphaherpesvirus 3, strain Oka vaccine
Human alphaherpesvirus 1 [10] = experiment: Antiviral activity against Aciclovir-resistant thymidine kinase-deficient HSV-1 KOS at 100 uM; assay type: functional, organism-based
[11] = test system: Human immunodeficiency virus 2; experiment: Antiviral activity against HIV2 ROD infected in human MT4 cells at 100 uM preincubated with cells for 30 mins followed by HIV inoculation measured after 4 to 5 days by microscopic analysis; assay type: functional, organism-based; conditions: ISOLATE ROD
[12] = molecular target: Adenosine receptor A3 (Homo sapiens) (UniProt P0DMS8); experiment: Agonist activity at adenosine A3 receptor (unknown origin) assessed as inhibition of forskolin-stimulated adenylyl cyclase activity at 10 uM; assay type: functional
Chain of Adenosine receptor A3 (Homo sapiens) (P0DMS8 whole entry): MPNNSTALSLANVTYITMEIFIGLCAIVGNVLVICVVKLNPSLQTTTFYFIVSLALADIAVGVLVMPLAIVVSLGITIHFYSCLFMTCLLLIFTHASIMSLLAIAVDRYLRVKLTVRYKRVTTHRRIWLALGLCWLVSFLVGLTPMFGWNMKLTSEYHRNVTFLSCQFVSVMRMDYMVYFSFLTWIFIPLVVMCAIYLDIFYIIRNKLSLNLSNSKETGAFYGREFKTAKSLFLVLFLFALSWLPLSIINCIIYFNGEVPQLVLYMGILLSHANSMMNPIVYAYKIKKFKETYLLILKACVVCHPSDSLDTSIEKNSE

[13] = test system: Human immunodeficiency virus 1; experiment: Antiviral activity against HIV1 3B infected in human MT4 cells at 100 uM preincubated with cells for 30 mins followed by HIV inoculation measured after 4 to 5 days by microscopic analysis; assay type: functional, organism-based
[14] = test system: Human immunodeficiency virus 1; experiment: Antiviral activity against HIV 1 NL4-3 infected in human MT4 cells at 100 uM preincubated with cells for 30 mins followed by HIV inoculation measured after 4 to 5 days by microscopic analysis; assay type: functional, organism-based
HeLa = experiment: Cytostatic activity against human HeLa cells after 72 hrs by Coulter counter method; assay type: functional, cell-based
Human betaherpesvirus 5 [15] = experiment: Antiviral activity against Human cytomegalovirus Davis at 100 uM; assay type: functional, organism-based
Influenza B virus = experiment: Antiviral activity against Influenza virus B at 100 uM; assay type: functional, organism-based
[16] = test system: Respiratory syncytial virus; experiment: Antiviral activity against Respiratory syncytial virus long at 100 uM; assay type: functional, organism-based
Human respirovirus 3 = experiment: Antiviral activity against parainfluenza virus 3 at 100 uM; assay type: functional, organism-based
Sindbis virus = experiment: Antiviral activity against Sindbis virus at 100 uM; assay type: functional, organism-based
Human betaherpesvirus 5 [17] = experiment: Antiviral activity against Human cytomegalovirus AD169 at 100 uM; assay type: functional, organism-based
Vaccinia virus = experiment: Antiviral activity against Vaccinia virus Lederle; assay type: functional, organism-based; conditions: Orthopoxvirus vaccinia

Row | SMILES | Activity (Human alphaherpesvirus 1 [1]) | IC50 (CCRF-CEM) [µM] | IC50 (L1210) [µM] | Activity (Human alphaherpesvirus 2 [2]) | Activity [3] | Activity (Coxsackievirus B4) | Activity (Influenza A virus [4]) | Activity (Human adenovirus 2) | Activity [5] | Activity (Human alphaherpesvirus 2 [6]) | Activity (Punta Toro virus) | Activity (Influenza A virus [8]) | Activity (Human alphaherpesvirus 1 [10]) | Activity [11] | Activity [13] | Activity [14] | IC50 (HeLa) [µM] | Activity (Human betaherpesvirus 5 [15]) | Activity (Influenza B virus) | Activity [16] | also measured
1 | C#C[C@@]1(O)[C@@H](CO)O[C@@H](n2cnc3c(NCc4cccc(Cl)c4)nc(Cl)nc32)[C@@H]1O | inactive | 22 | 50 | inactive | inactive | inactive | inactive | inactive | inactive | inactive | inactive | inactive | inactive | inactive | inactive | inactive | 43 | inactive | inactive | inactive | EC50 (Human alphaherpesvirus 3 [7]): 4.68 µM; EC50 (Human alphaherpesvirus 3 [9]): 4.68 µM; inhibition [12]: 48%; Activity (Human respirovirus 3): inactive; Activity (Sindbis virus): inactive; Activity (Human betaherpesvirus 5 [17]): inactive
2 | C#C[C@@]1(O)[C@@H](CO)O[C@@H](n2cnc3c(N)ncnc32)[C@@H]1O | inactive | 0.61 | 0.73 | inactive | inactive | inactive | inactive | inactive | inactive | inactive | inactive | inactive | inactive | inactive | inactive | inactive | 0.29 | inactive | inactive | inactive | EC50 (Vaccinia virus): 350 nM; Activity (Human respirovirus 3): inactive; Activity (Sindbis virus): inactive; Activity (Human betaherpesvirus 5 [17]): inactive
